{
  "source": "paper PMC5008829",
  "about": "“Computational Analysis of the Ligand Binding Site of the Extracellular ATP Receptor, DORN1” (PLoS ONE, 2016)",
  "assay_in_all_cases": "radioligand saturation binding, Sephadex G-25 gel filtration",
  "key": {"[1]": {"target": "T1, DORN1 WT (LEC), lectin domain only (Arabidopsis thaliana, UniProt Q9LSR8)", "T1 construct": "gene LECRK19; L-type lectin domain only, recombinant from E. coli (GST fusion likely)", "T1 sequence (Q9LSR8 22-257 limits assumed)": "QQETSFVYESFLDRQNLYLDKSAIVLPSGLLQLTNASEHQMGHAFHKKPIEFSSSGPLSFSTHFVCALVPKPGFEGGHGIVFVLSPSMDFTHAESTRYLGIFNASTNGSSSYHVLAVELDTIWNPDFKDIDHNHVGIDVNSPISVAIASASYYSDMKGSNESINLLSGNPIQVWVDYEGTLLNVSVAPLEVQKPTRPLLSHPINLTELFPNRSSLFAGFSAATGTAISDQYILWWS", "details": "[γ-32P]ATP labelled compound; 10 mM HEPES pH 7.5, 5 mM MgCl2, on ice 30 min", "text": "radioligand saturation binding, Sephadex G-25 gel filtration on DORN1 WT (LEC), lectin domain only | WT (LEC): lectin domain only, WT (ECD): extracellular domain"}, "[2]": {"target": "T2, DORN1 WT (ECD), extracellular domain (Arabidopsis thaliana, UniProt Q9LSR8)", "T2 construct": "gene LECRK19; extracellular domain, signal peptide removed, pGEX-5X N-terminal GST fusion, E. coli BL21-AI, glutathione Sepharose; primers encode QETSFVY...APHKKVST", "T2 sequence (Q9LSR8 23-288)": "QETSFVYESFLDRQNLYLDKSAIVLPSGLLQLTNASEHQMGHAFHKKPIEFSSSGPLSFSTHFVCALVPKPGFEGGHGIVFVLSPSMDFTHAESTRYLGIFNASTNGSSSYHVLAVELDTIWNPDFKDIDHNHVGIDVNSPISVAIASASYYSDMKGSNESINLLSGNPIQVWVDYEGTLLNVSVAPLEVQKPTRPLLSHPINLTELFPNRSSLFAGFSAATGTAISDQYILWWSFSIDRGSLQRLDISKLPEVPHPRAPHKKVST"}, "[3]": {"target": "T3, DORN1 WT (ECD), extracellular domain (Arabidopsis thaliana, UniProt Q9LSR8, DEL141-146)", "T3 construct": "gene LECRK19; extracellular domain, signal peptide removed, pGEX-5X N-terminal GST fusion, E. coli BL21-AI, glutathione Sepharose; primers encode QETSFVY...APHKKVST", "T3 sequence (Q9LSR8 with tags, fused parts or gaps DEL141-146)": "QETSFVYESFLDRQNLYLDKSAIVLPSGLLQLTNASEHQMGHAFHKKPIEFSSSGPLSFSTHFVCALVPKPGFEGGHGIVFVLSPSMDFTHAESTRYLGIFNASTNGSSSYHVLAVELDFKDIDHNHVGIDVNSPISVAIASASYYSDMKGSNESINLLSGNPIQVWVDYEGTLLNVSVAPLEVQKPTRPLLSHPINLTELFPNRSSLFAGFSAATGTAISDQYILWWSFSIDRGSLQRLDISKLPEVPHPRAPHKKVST"}, "[4]": {"target": "T4, DORN1 WT (ECD), extracellular domain (Arabidopsis thaliana, UniProt Q9LSR8, DEL116-118)", "T4 construct": "gene LECRK19; extracellular domain, signal peptide removed, pGEX-5X N-terminal GST fusion, E. coli BL21-AI, glutathione Sepharose; primers encode QETSFVY...APHKKVST", "T4 sequence (Q9LSR8 with tags, fused parts or gaps DEL116-118)": "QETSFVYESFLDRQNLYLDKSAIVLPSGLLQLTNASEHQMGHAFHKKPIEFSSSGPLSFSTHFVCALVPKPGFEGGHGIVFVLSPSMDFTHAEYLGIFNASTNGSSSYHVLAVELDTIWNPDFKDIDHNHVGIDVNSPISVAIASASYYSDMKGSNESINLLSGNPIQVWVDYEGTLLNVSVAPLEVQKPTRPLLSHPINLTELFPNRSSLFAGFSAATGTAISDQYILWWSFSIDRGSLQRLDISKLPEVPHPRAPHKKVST"}},
  "data": [
    {"smiles": "Nc1ncnc2c1ncn2[C@@H]1O[C@H](COP(=O)(O)OP(=O)(O)OP(=O)(O)O)[C@@H](O)[C@H]1O", "note": "[ATP]", "values": [
      {"measurement": "Kd", "setting": "[1]", "result": 52.6, "unit": "nM"},
      {"measurement": "Kd", "setting": "[2]", "result": 38.3, "unit": "nM"},
      {"measurement": "Kd", "setting": "[3]", "result": 190, "unit": "nM"},
      {"measurement": "Kd", "setting": "[4]", "result": 534, "unit": "nM"}
    ]}
  ]
}
